From patent publication US11312719B2, “9-substituted amino triazolo quinazoline derivatives as adenosine receptor antagonists, pharmaceutical compositions and their use” (Merck Sharp & Dohme Corp., priority 2018, dated 2022)
pIC50: −log10 of the molar value.

Assays:
human A2A receptors = human A2A receptors (Homo sapiens (Human), UniProt P29274); assay: A2A antagonism in cAMP cell-based assay (LANCE cAMP, HEK293); conditions: HEK293 cells expressing human A2A receptor
Method: (§1) Measurement of A2A and A2B Antagonism in cAMP Cell-Based Assay
(§2) The ability of compounds to antagonize human A2A and A2B adenosine receptors was determined using a kit to measure changes in intracellular cyclic AMP levels (LANCE cAMP 384 Kit, Perkin Elmer, Cat. No. AD0264). HEK293 cells recombinantly expressing either human A2A or A2B receptors, previously frozen in Recovery Medium (Life Technologies, Cat. No. 12648-010) were thawed and diluted into stimulation buffer (HBSS (Hyclone SH 30268.01), 5 mM HEPES (Gibco 15630-106), 200 nM rolipram (Tocris, Cat. No. 0905), and 1.5% (V/v) BSA stabilizer (kit component). The cell suspension was centrifuged at 200×g for 10 min and then resuspended in stimulation buffer, supplemented with a 1:10 000 dilution of Alexa Fluor 647 anti-cAMP antibody, to a density of 6.0×10^5 cells/mL. A Labcyte Echo 550 acoustic dispenser was used to transfer up to 25 nL of test compound dissolved in DMSO into the wells of a dry Optiplate-384 plate (Perkin Elmer, Cat. No. 6008289). All subsequent liquid additions were performed using a multichannel pipettor. Next, 5 μL of the cell suspension was added to the wells of the Optiplate-384 and incubated for 30 min. at 37° C. and 5% CO2 in a humidified environment. After this time 5 μL of either 300 nM or 600 nM adenosine (Sigma Cat. No. A9251) for A2A and A2B respectively was added and incubated for 30 minutes at 37° C. and 5% CO2 in a humidified environment. At this time detection mix was prepared by combining the LANCE Eu-W8044 labeled streptavidin and Biotin-cAMP in detection buffer according to the manufacturers protocol. 10 μL of the detection mix was added to each well of the Optiplate-384 which was covered with a plate seal and incubated under ambient conditions for 2 hours prior to reading the plate using an Envision (Perkin Elmer, Waltham, Mass.) multimode plate reader. Data was normalized by defining minimal effect as stimulation in the presence of 0.25% (v/v) DMSO and maximal effect as stimulation in the presence of 1 μM ZM241385 (Cayman, Cat. No. 1036). Curve fitting of the percent effect data versus the log of compound concentration used a 4-parameter concentration response curve fitting algorithm to calculate IC50 values. Compound concentrations tested were 10,000, 3,333, 1,111, 370.4, 123.4, 41.2, 13.7, 4.6, 1.5 and 0.5 nM with 0.25% residual DMSO.

human A2B receptors = human A2B receptors (Homo sapiens (Human), UniProt P29275); assay: A2B antagonism in cAMP cell-based assay (LANCE cAMP, HEK293); conditions: HEK293 cells expressing human A2B receptor
Sequence of human A2B receptors (P29275 whole entry): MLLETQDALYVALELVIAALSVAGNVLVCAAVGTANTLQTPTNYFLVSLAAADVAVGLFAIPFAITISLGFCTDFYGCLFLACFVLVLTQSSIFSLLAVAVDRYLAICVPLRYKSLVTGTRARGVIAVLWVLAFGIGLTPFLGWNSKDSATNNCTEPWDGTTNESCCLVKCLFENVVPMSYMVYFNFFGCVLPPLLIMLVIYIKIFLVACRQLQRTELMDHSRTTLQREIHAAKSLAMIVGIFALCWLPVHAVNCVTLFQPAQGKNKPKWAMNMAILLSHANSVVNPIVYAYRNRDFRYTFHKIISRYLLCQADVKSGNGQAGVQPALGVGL
Method: as §1, §2

Sequence of human A2A receptors (P29274 whole entry): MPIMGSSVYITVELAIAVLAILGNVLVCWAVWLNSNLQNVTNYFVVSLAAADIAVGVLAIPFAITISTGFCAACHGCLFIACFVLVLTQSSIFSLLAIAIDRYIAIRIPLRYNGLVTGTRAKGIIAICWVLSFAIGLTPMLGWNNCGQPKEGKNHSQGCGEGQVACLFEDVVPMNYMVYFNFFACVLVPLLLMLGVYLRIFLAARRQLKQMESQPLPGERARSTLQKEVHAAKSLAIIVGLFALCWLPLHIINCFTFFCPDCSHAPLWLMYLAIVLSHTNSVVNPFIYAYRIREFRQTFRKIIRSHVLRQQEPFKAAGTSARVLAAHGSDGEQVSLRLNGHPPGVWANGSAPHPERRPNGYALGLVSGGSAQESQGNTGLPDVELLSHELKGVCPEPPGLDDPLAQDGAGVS

`COc1cc(F)cc2c1nc(N)n1nc(C3CC(C)CN(c4cnn(C(C)C(C)O)c4C)C3)nc21` (single isomer, unassigned) [Example 221, (2R,3R or 2S,3S)-3-(4-((3R,5S or 3S,5R)-3-(5-amino-9-fluoro-7-methoxy-[1,2,4]triazolo[1,5-c]quinazolin-2-yl)-5-methylpiperidin-1-yl)-5-methyl-1H-pyrazol-1-yl)butan-2-ol] gave a pIC50 (human A2A receptors) of 9.30 and a pIC50 (human A2B receptors) of 7.20.

Work on `COc1cc(F)cc2c1nc(N)n1nc(C3CC(C)CN(c4cnn(CC(C)(C)O)c4)C3)nc21` (single isomer, unassigned) [Example 159, 1-(4-((3R,5S or 3S,5R)-3-(5-amino-9-fluoro-7-methoxy-[1,2,4]triazolo[1,5-c]quinazolin-2-yl)-5-methylpiperidin-1-yl)-1H-pyrazol-1-yl)-2-methylpropan-2-ol] yielded a pIC50 (human A2A receptors) of 9.00 and a pIC50 (human A2B receptors) of 7.53.

`COc1cc2nc(N)n3nc([C@@H]4CCCN(c5cnn(C(C)C(C)O)c5)C4)nc3c2cc1F` (single isomer, unassigned) [Example 200, (2S,3R or 2R,3S)-3-(4-((R)-3-(5-amino-9-fluoro-8-methoxy-[1,2,4]triazolo[1,5-c]quinazolin-2-yl)piperidin-1-yl)-1H-pyrazol-1-yl)butan-2-ol] gave a pIC50 (human A2A receptors) of 8.60 and a pIC50 (human A2B receptors) of 6.99.

“(R or S)-1-(4-((2S,5R or 2R5S)-5-(5-amino-9-fluoro- 8-methoxy-[1,2,4]triazolo[1,5-c]quinazolin-2-yl)-2- methylpiperidin-1-yl)-1H-pyrazol-1-yl)propan-2-ol [Example 240]” showed a pIC50 (human A2A receptors) of 8.92 and a pIC50 (human A2B receptors) of 7.65.

With `COc1cc2nc(N)n3nc(C4CC(C)CN(c5cnn(C(C)(C)CO)c5)C4)nc3c2cc1F` (single isomer, unassigned) [Example 171, 2-(4-((3R,5S or 3S,5R)-3-(5-amino-9-fluoro-8-methoxy-[1,2,4]triazolo[1,5-c]quinazolin-2-yl)-5-methylpiperidin-1-yl)-1H-pyrazol-1-yl)-2-methylpropan-1-ol] the pIC50 (human A2A receptors) was 8.92 and the pIC50 (human A2B receptors) was 7.95.

Work on `COc1cc(F)cc2c1nc(N)n1nc(C3CC(C)CN(c4cn(C(C)(C)C(C)O)nc4C)C3)nc21` (single isomer, unassigned) [Example 206, (S or R)-3-(4-((3R,5S or 3S,5R)-3-(5-amino-9-fluoro-7-methoxy-[1,2,4]triazolo[1,5-c]quinazolin-2-yl)-5-methylpiperidin-1-yl)-3-methyl-1H-pyrazol-1-yl)-3-methylbutan-2-ol] yielded a pIC50 (human A2A receptors) of 7.89 and a pIC50 (human A2B receptors) of 5.37.

For `COc1cc2nc(N)n3nc(C4CCC(C)N(c5cnn(CC(C)(C)N)c5)C4)nc3c2cc1F` (single isomer, unassigned) [Example 263, 2-((3S,6R or 3R,6S)-1-(1-(2-amino-2-methylpropyl)-1H-pyrazol-4-yl)-6-methylpiperidin-3-yl)-9-fluoro-8-methoxy-[1,2,4]triazolo[1,5-c]quinazolin-5-amine], the pIC50 (human A2A receptors) was 7.59 and the pIC50 (human A2B receptors) was 6.29.

With `COc1cc(F)cc2c1nc(N)n1nc([C@@H]3CCCN(c4cn(C(C)C(C)O)nc4C)C3)nc21` (single isomer, unassigned) [Example 190] the pIC50 (human A2A receptors) was 9.10 and the pIC50 (human A2B receptors) was 7.25.

Compound `CCC(C)(O)Cn1cc(N2CCC[C@@H](c3nc4c5cc(F)c(OC)cc5nc(N)n4n3)C2)cn1` (single isomer, unassigned) [Example 184, (S or R)-1-(4-((R)-3-(5-amino-9-fluoro-8-methoxy-[1,2,4]triazolo[1,5-c]quinazolin-2-yl)piperidin-1-yl)-1H-pyrazol-1-yl)-2-methylbutan-2-ol] has a pIC50 (human A2A receptors) of 8.31 and a pIC50 (human A2B receptors) of 6.46.

`COc1cc(F)cc2c1nc(N)n1nc(C3CCC(C)N(c4cnn(C(C)(C)C(C)O)c4)C3)nc21` (single isomer, unassigned) [Example 269, (S or R)-3-(4-((2S,5R or 2R,5S)-5-(5-amino-9-fluoro-7-methoxy-[1,2,4]triazolo[1,5-c]quinazolin-2-yl)-2-methylpiperidin-1-yl)-1H-pyrazol-1-yl)-3-methylbutan-2-ol] showed a pIC50 (human A2A receptors) of 8.92 and a pIC50 (human A2B receptors) of 8.19.
